# Results as given in patent US11142548B2, “Agents that activate CD47 and their use in the treatment of inflammation” (SORBONNE UNIVERSITE, priority 2016, dated 2021).
# Non-standard residues stand in square brackets, D forms with d. Residues, ends and D or L forms follow the SMILES beside them. NMeR = CN[C@@H](CCCNC(=N)N)C(=O)O; Nle = CCCC[C@H](N)C(=O)O
# Columns and labels:
# human monocytes = experiment: Monocyte/RPE co-culture, monocyte number; assay type: cell-based; settings: for number of PU1+ Mos, dose response: HTRA1-activated co-cultures, dose dependently
# Text: In accordance with the Declaration of Helsinki, volunteers provided written and informed consent for the human monocyte expression studies, which were approved by the Centre national d'ophthalmologic des Quinze-Vinet hospital (Paris, France) ethics committees (no. 913572). PBMCs were isolated from heparinized venous blood from healthy volunteer individuals by 1-step centrifugation on a Ficoll Paque layer (GE Healthcare) and sorted with EasySep Human Monocyte Enrichment Cocktail without CD16 Depletion Kit (StemCells Technology). Mouse peritoneal macrophages, bone marrow-derived monocytes and photoreceptor outer segment (POS) isolation (all in serum-free X-Vivo 15 medium) were performed as previously described (Sennlaub et al, EMBO Mol Med. 2013, 5:1775-1793). For co-culture experiments the mononuclear monocytes were either stained using CellTrace™ CFSE (Life Technologies®) and then washed three times or they were identified by PU1 immunohistochemistry, a MP-specific transcription factor not expressed in RPE.
# (§1) Fresh pig eyes were obtained from the slaughter house 2-3 hours after enucleation. They were cleaned of surrounding tissue and immersed briefly in antiseptic solution (Pursept®). The anterior part of the eye was removed, as the lens, vitreous and vitreous. The posterior segments were washed 2 times with PBS (Phosphate Buffered Saline) and then incubated at 37° C. in the presence of 0.25% trypsin, to detach the RPE cells. After 1 h incubation, the trypsin solution was removed and the cells recovered in Dulbecco's Modified Eagle's Medium (DMEM) supplemented with 20% fetal calf serum (FCS) decomplemented and in the presence of antibiotics (1% penicillin/Streptomycin). The cells were washed several times and then incubated at 37° C. in culture dishes. Three days after the culturing, these cells were again incubated with by 0.25% trypsin, washed, and seeded into 48 wells culture plates (Grenier®) at a density of 150,000 cells/culture well (300,000 cells/[…] or 500 μL/well). Cell confluence was obtained after 4 days of incubation at 37° C. with optimum cell characteristics (squamous cells, well pigmented). To avoid the aging of these primary cell cultures, all the experiments were conducted between the 5th and 7th day after seeding the culture plates.
# The culture medium of RPE cells was changed the day before the co-culture with DMEM without FCS (DMEM+1% Penicillin/Streptomycin only). Monocytes were plated onto the wells in the presence or absence of RPE cells at a concentration of 200,000 cells/culture well in a 48-well plate.
# Part of co-culture well was brought into contact with 1 ng/ml of Lipopolysaccharide (LPS) from E. coli or recombinant HTRA1 (R & D, 5 μg/ml), to simulate a systemic inflammatory activation (LPS) or microenvironment similar to AMD (increase HTRA1) (see above). […]
# RPE cells were permeabilized, after washing PAF 4%, with a solution of PBS-0.1% Triton-Citrate 0.1%. Nonspecific immunogenic sites were blocked with PBS-0.1% Triton-5% horse serum. After 1 hour, the blocking solution was removed and the cells were placed in presence of the with the primary antibodies (polyclonal rabbit anti-human PU.1, 1/200, LifeTechnologies; polyclonal goat anti-human OTX2, 1/500, R&D) diluted in PBS triton 0.1% and 1% horse serum and incubated at 4° C. for 12 h. After three washes with PBS, the secondary antibody coupled to a fluorochrome and diluted in PBS-0.1% Triton-1% horse serum was added along with DAPI (nuclear staining) and left for 1 hour at temperature ambient and then washed several times with PBS.
# 25 fields per well were analyzed Arrayscan® then the number of cells for each culture condition was counted directly by a computer protocol. All nuclei were labeled with DAPI, monocytes were marked in green 488 nm (CellTrace™ CFSE) or and RPE cells in far red 647 nm (recognition of anti-OTX2 primary antibody). […]
# porcine RPE = experiment: Monocyte/RPE co-culture, RPE cell number (OTX2+ nuclei); assay type: cell-based; settings: for number/survival of RPE cells in co-culture: HTRA1 5 μg/mL, OTX2 nuclear marker
# Procedure: as §1
# The culture medium of RPE cells was changed the day before the co-culture with DMEM without FCS (DMEM+1% Penicillin/Streptomycin only). Monocytes were plated onto the wells in the presence or absence of RPE cells at a concentration of 200,000 cells/culture well in a 48-well plate. […]
# 25 fields per well were analyzed Arrayscan® then the number of cells for each culture condition was counted directly by a computer protocol. […] For graphs where quantifications from several plates were pooled (FIGS. 4D and E) results were expressed as the percentage of the number of PU.1 or OTX2 positive cells normalized with the HTRA1 treated condition. […]
# subretinal IBA-1+ MPs = experiment: Laser-injury model in Cx3cr1GFP/GFP mice; assay type: in vivo, mouse; settings: 2 μl intravitreal at day 4 and day 7, day 10, vs PBS or 4NGG
# Procedure: (§2) Laser-coagulations were performed with a 532 nm ophtalmological laser mounted on an operating microscope (Vitra Laser, 532 nm, 450 mW, 50 ms, and 250 μm): Intravitreal injections of 2 μl of HTRA1 and/or TSP1 were performed using glass capillaries (Eppendorf) and a micro injector. The 2 μl injection solution contained 50 μg/ml TSP1 and HTRA1, corresponding to an intraocular concentration of 5 μg/ml of each protein assuming their dilution by approximately 1/10th in the intra-ocular volume. […] A volume of 2 μl of a 100 μM solution of either PBS, recombinant TSP1 (10 μg/ml), the 4NGG control peptide or the CD47-activating peptide PKT16 (200 μM) was injected at day 4 (when MP infiltration is maximal) and day 7 after the injury and evaluated subretinal inflammation on flatmounted RPE/choroidal flatmounts at day 10.
# (§3) Eyes were enucleated, fixed in 4% PFA 30 minutes and sectioned at the limbus; the cornea and lens were discarded. […] Choroids and retinas were flatmounted and viewed with a fluorescence microscope DM5500B (Leica). IBA-1+ cells were counted on whole RPE/choroidal flatmounts and on the outer segment side of the retina. […]
# [1] = system: recruited monocyte-derived inflammatory macrophages (recMφ); experiment: Thioglycollate-induced peritonitis; assay type: in vivo, mouse; settings: single intra-peritoneal injection at day 1, observed at day 2
# Procedure: Mouse peritoneal exudate cells (PECs) were elicited by i.p. injection of 0,5 ml 3% thioglycollate (T9032, Sigma) into 10 weeks old male C57BL/6J and Cd47^−/− mice. After 1 day, PECs were isolated by flushing of the peritoneum with ice-cold PBS, Mφs were negatively selected by magnetic sorting following the manufacturers protocol (EasySep Mouse Monocyte Enrichment Kit, Stemcell Technologies), resuspended in X-VIVO 15 medium (Lonza), and plated in Lab-Tek® Chamber Slide™ (Nunc®).
# To test whether CD47 influences inflammation resolution in other pathological contexts, a model of acute thioglycollate-induced peritonitis was used, characterized by an early accumulation of neutrophils, followed by recruited monocyte-derived inflammatory macrophages (recMφ), both experiencing an apoptosis-driven elimination at different kinetics (Gautier et al., Blood. 2013, 122:2714-2722).
# [2] = system: subretinal IBA-1+ mononuclear monocytes; experiment: Laser-induced subretinal inflammation in wildtype- and Tsp1-/- mice; assay type: in vivo, mouse; settings: wildtype mice, intravitreal injection at d3, quantification at d7
# Procedure: as §2, §3
# HTRA1 = target: T1, HTRA1 (Homo sapiens, UniProt Q92743); experiment: Co-incubation of recombinant TSP1 or TSP2 with recombinant HTRA1 (Coomassie staining, Western blot); assay type: biochemical; settings: co-incubation at 37° C. for 24 h, Coomassie gel
# T1 construct: purchased R & D
# Procedure: WB analysis was performed using a monoclonal anti-TSP1 antibody (Abeam), as previously described (Houssier et al., PLoS Med. 2008, 5:e39). RT-PCRs primers were ordered from Taqman, reference: Hs01016151_m1.
# Western blot analysis of the proteins confirmed the disappearance of the whole sized TSP1 and the appearance of several smaller bands in the co-incubated condition (FIG. 3A). […] Next the functionality of rTSP1 and HTRA1-digested TSP1 was analyzed in laser-induced subretinal inflammation in vivo. […] Accordingly, associated choroidal neovascularization, measured as the surface covered by CD102^−CNV on choroidal flatmounts at d7, underwent the same differences (FIG. 3D).
# T1 sequence (Q92743 23-480): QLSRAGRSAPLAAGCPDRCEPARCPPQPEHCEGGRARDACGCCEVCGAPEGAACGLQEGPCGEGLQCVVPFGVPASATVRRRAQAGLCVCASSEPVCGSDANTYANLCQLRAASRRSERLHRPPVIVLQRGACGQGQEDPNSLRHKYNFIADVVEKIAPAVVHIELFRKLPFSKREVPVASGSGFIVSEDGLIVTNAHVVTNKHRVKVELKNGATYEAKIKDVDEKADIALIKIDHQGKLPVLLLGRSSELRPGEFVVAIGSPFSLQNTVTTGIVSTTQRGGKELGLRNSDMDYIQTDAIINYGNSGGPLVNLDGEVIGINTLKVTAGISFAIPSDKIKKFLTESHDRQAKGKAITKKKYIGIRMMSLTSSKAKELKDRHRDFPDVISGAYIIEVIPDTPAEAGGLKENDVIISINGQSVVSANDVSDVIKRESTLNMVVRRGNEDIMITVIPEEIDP
compound,measurement,setting,value
KRFYVVMWKK (4N1K peptide) [reference compound],"number of PU1+ Mos, dose response",human monocytes; 48 h,diminished the number of Mos
"CCCC[C@H](NC(=O)[C@@H](NC(=O)[C@@H](NC(=O)[C@H](Cc1ccc(O)cc1)NC(=O)[C@H](Cc1ccccc1)NC(=O)[C@H](CCCNC(=N)N)N(C)C(=O)[C@H](N)CCCCN)C(C)C)C(C)C)C(=O)N[C@@H](Cc1c[nH]c2ccccc12)C(=O)N[C@@H](CCCCN)C(=O)N[C@H](CCCCN)C(=O)O [PKT16, (D)K-(NMeR)-F-Y-V-V-Nle-W-K-(D)K] (H-[dK][NMeR]FYVV[Nle]WK[dK]-OH)","number of PU1+ Mos, dose response",human monocytes; 48 h,diminished the number of Mos
same,CFSE+ monocytes number in HTRA1 treated co-culture,"human monocytes; peptide 100 μM added directly, HTRA1 5 μg/mL, 24 h",completely reversed
same,toxicity to RPE cells (number of OTX2+ nuclei),porcine RPE; HTRA1 treated co-culture with peptide,No toxicity
same,elimination of subretinal IBA-1+ MPs adjacent to the laser impact,subretinal IBA-1+ MPs,eliminated significantly more efficiently
"CSCC[C@H](NC(=O)[C@@H](NC(=O)[C@@H](NC(=O)[C@H](Cc1ccc(O)cc1)NC(=O)[C@H](Cc1ccccc1)NC(=O)[C@H](CCCNC(=N)N)NC(=O)[C@H](N)CCCCN)C(C)C)C(C)C)C(=O)N[C@@H](Cc1c[nH]c2ccccc12)C(=O)N[C@@H](CCCCN)C(=O)N[C@H](CCCCN)C(=O)O [PKHB1, (D)K-R-F-Y-V-V-M-W-K-(D)K]",elimination of recMφs,[1],significantly accelerated the elimination
4N1K-GGGGGGGG-4N1K (KRFYVVMWKKGGGGGGGGKRFYVVMWKK) [d4N1K],Mo elimination compared with 4N1K,"human monocytes; HTRA1-activated co-cultures, 0, 4, 20 and 50 μM, 48 h",significantly more effective
"rHTRA1: recombinant HTRA1 (R & D), high-temperature requirement A serine peptidase 1",laser-induced subretinal inflammation in wildtype mice,[2],aggravates
same,monocytes survival in co-culture,human monocytes; HTRA1 5 μg/mL,significantly increased
same,hMos number relative to control conditions,"human monocytes; HTRA1 5 μg/mL added to co-culture, 24 h",3 to 4 times
same,effect of HTRA1 on Mo number after heat-inactivation,human monocytes; heat-inactivated HTRA1 (not shown),abolished its effect
same,number/survival of RPE cells in co-culture,porcine RPE; listed as HTRA1,did not influence survival
same,number/survival of RPE cells in co-culture,porcine RPE; listed as Recombinant HTRA1,did not diminish significantly
"recombinant TSP2: recombinant TSP2, contains one VVM site, resistant to HTRA1",degradation by recombinant HTRA1,HTRA1,no such degradation
